Assay results from patent US20060052396A1, “Arylamines for the treatment of conditions associated with gsk-3” (priority 2001, published 2006).

`CN(C)S(=O)(=O)c1ccccc1-c1cnc(N)c(C(=O)Nc2cccnc2)n1` [Example 235, 3-Amino-6-{2-[(dimethylamino)sulfonyl]phenyl}-N-pyridin-3-ylpyrazine-2-carboxamide] gave a melting point of 221.5 to 223 °C.
